Results taken from patent publication US20020183335A1, “2, 4-disubstituted pyrimidine-5-carboxamide derivatives as KCNQ potassium channel modulators” (priority 2001, published 2002).
Marks after values point to notes of the source that are not given here.

Experiments:
[1] = molecular target: cloned mouse KCNQ2 (mKCNQ2) (Mus musculus, UniProt Q9Z351); experiment: KCNQ oocyte two-electrode voltage clamp, KCNQ2-mediated outward current; format: cell-based; details: expressed as percent increase over KCNQ current in controls, Xenopus oocytes
Protocol: The ability of compounds described in the present invention to open KCNQ channels and increase whole-cell outward (K^+) KCNQ-mediated currents was assessed under voltage-clamp conditions by determining their ability to increase cloned mouse KCNQ2 (mKCNQ2)-mediated, heteromultimeric KCNQ2/3 (KCNQ2/3)-mediated, and human KCNQ5 (hKCNQ5)-mediated outward currents heterologously expressed in Xenopus oocytes. Oocytes were prepared and injected using standard techniques; each oocyte was injected with approximately 50 nl of mKCNQ2, or hKCNQ5 cRNA. In the case of mKCNQ2/3 heteromultimeric channel expression, equal amounts (25-50 nL) of each cRNA were co-injected. […] Following injection, oocytes were maintained at 17° C. in ND96 medium consisting of (in mM): NaCl, 90; KCl, 1.0; CaCl2, 1.0; MgCl2, 1.0; HEPES, 5.0; pH 7.5. Horse serum (5%) and penicillin/streptomycin (5%) were added to the incubation medium. Recording commenced 2-6 days following mRNA injection. Prior to the start of an experiment oocytes were placed in a recording chamber and incubated in Modified Barth's Solution (MBS) consisting of (in mM): NaCl, 88; NaHCO3, 2.4; KCl, 1.0; HEPES, 10; MgSO4, 0.82; Ca(NO3)2, 0.33; CaCl2, 0.41; pH 7.5.
Oocytes were impaled with electrodes (1-2 MΩ) and standard 2-electrode voltage clamp techniques were employed to record whole-cell membrane currents. Recordings were accomplished using standard two-electrode voltage clamp techniques [Stuhmer et al., Methods in Enzymology, Vol. 207: 319-339 (1992)]. Voltage-clamp protocols typically consisted of a series of voltage steps 1-5 sec duration, in +10 mV steps from a holding potential of −90 mV to a maximal potential of +40 mV; records were digitized at 5 kHz and stored on a computer using pclamp data acquisition and analysis software (Axon Instruments). […]

[2] = tested on: SSS-stimulated trigeminal field response; experiment: In vivo electrophysiology: superior sagittal sinus (SSS)-stimulated trigeminal field response model of migraine; parameters: species or system rat
From the text: Male Long-Evans rats (Harlan, 250-400 g) were used in the experiments described in this example. Prior to testing, rats were allowed access to food and water ad libitum and were maintained on a 12:12-h light/dark cycle. Rats were group housed in an Association for Assessment and Accreditation of Laboratory Animal Care (AAALAC) accredited facility and cared for in strict compliance with all applicable regulations.
Rats were anesthetized with 1.2 g/kg i.p. urethane (#U-2500, Sigma Chemical Company, St. Louis, Mo.) and given supplemental urethane as needed. […]
Stimulated field responses were recorded in the trigeminal nucleus caudalis using Teflon coated stainless-steel microelectrodes (5 megaohms impedance, Frederick Haer, Brunswick, Me.) and amplified and filtered (0.1 Hz-10 kHz) using a differential amplifier (#IsoDAM8, World Precision Instruments, Sarasota, Fla.). […]
Three baseline measures (i.e., 100% of control), each consisting of 100 evoked trigeminal field potentials, were sampled prior to drug injection. […] Following injection of test substances, data were sampled for 1 hour, averaged into 5 minute bins (90 evoked potentials) and expressed as a percent change from average baseline values for the purposes of statistical analysis. Data were analyzed using repeated measures analyses of variance comparing vehicle and drug effects. […]

Chain of cloned mouse KCNQ2 (mKCNQ2) (Q9Z351 whole entry): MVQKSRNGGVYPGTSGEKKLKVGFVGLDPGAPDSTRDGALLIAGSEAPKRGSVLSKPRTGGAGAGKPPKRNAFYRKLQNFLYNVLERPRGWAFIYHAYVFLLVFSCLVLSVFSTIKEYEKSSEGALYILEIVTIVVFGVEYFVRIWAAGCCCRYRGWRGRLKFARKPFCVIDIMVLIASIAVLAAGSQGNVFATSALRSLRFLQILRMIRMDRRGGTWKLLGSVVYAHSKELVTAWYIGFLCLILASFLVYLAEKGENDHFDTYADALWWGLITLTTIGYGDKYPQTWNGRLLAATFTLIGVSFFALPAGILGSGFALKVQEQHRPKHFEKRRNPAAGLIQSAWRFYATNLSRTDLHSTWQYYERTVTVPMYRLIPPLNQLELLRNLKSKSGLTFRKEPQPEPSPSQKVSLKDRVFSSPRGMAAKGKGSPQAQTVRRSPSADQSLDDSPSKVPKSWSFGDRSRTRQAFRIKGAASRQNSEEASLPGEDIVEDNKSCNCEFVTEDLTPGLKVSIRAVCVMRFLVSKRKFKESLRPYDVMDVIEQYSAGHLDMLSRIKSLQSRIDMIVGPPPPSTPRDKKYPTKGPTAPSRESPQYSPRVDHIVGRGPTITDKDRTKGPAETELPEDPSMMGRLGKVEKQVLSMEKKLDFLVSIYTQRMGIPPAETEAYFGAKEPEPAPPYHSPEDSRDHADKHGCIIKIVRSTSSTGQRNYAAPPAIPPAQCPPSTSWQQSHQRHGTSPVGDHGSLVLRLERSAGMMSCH

With `O=C(NCc1ccc(F)cc1)c1cnc(N2CCOCC2)nc1C1CCCCC1` [Example 1, 4-Cyclohexyl-2-(morpholin-1-yl)-N-[(4-fluorophenyl)methyl]pyrimidine-5-carboxamide] the “KCNQ2 Current” value ([1]; at 20 μM) was “+++ (+++ = >200%)”.

`O=C(NCc1ccc(F)cc1)c1cnc(N2CCCC2)nc1C1CCCCC1` [Example 4, 4-Cyclohexyl-2-(pyrrolidin-1-yl)-N-[(4-fluorophenyl)methyl]pyrimidine-5-carboxamide] was tested, and the “KCNQ2 Current” value ([1]; at 20 μM) was “+++ (+++ = >200%)”.

`CCCc1nc(N2CCCC2)ncc1C(=O)NCc1ccc(F)cc1` [Example 9, 4-(1-Propyl)-2-(pyrrolidin-1-yl)-N-[(4-fluorophenyl)methyl]pyrimidine-5-carboxamide] was tested, and the “KCNQ2 Current” value ([1]; at 20 μM) was “+++ (+++ = >200%)”.

`O=C(NCc1ccc(C(F)(F)F)cc1)c1cnc(N2CCCC2)nc1C(F)(F)F` [Example 19] was tested, and the “decrease in field potential compared with vehicle” value ([2]; 1 mg/kg i.v., 60 minutes following i.v. injection, rat SSS model of migraine, p=0.005) was 25.2%, the “reduction in the SSS-stimulated trigeminal field response” value ([2]; i.v., rat, overall ANOVA p<0.001) was “dose-dependent reduction” and the “KCNQ2 Current” value ([1]; at 5 μM) was “++** (++ = 151-200%)”.

With `O=C(NCc1ccc(C(F)(F)F)cc1)c1cnc(NCc2ccccc2)nc1N1CCCC1` [Example 37, 2-(Phenylmethylamino)-4-(pyrrolidin-1-yl)-N-[[4-(trifluoromethyl)phenyl]methyl]pyrimidine-5-carboxamide] the “KCNQ2 Current” value ([1]; at 20 μM) was “++ (++ = 151-200%)”.

For `O=C(NCc1ccc(C(F)(F)F)cc1)c1cnc(NCc2ccc(Cl)cc2)nc1N1CCCC1` [Example 39, 2-[(4-Chlorophenyl)methylamino]-4-(pyrrolidin-1-yl)-N-[[4-(trifluoromethyl)phenyl]methyl]-pyrimidine-5-carboxamide], the “KCNQ2 Current” value ([1]; at 20 μM) was “+ (+ = 125-150%)”.
